Legend:
human platelets = test: sAPPα release by human platelets, Western blot of supernatant (antibody 6E10); assay type: cell-based; settings: for sAPPα release by washed platelets: collagen up to 5 μg/ml, ADP up to 25 μM
Method: FIG. 2: sAPPα release is mediated through G protein-coupled receptors. Human platelets (600,000 cells/μl) were incubated with 20 μM arachidonic acid (AA), U46,619 (500 nM), PAR1-AP (100 μM), PAR4-AP (200 μM) or thrombin (1 U/ml) for 1 h. The cells were then pelleted at 10,000×g for 15 min and the levels of sAPPα in the supernatant were determined by Western blot analysis using the antibody 6E10 (Calbiochem).
FIG. 3: The effect of arachidonic acid is mediated by the TP receptor. Left panel: Human platelets were incubated by increasing concentrations of U46,619 and sAPPa was analyzed in the supernatant as described for FIG. 2. Right panel: Human platelets were pre-incubated for 15 min with increasing concentration of an antagonist of the TP receptor, SQ29,548, prior addition of 7.5 μM of arachidonic acid. sAPPα release was analyzed by western blot.
FIG. 4: Activation of PGI2 receptor inhibits sAPPa release triggered by U46,619. Human platelets were pre-incubated for 30 min with increasing concentrations of carbaprostacylin prior addition of 500 nM of U46,619. After 1 h the levels of sAPPa in the supernatant were determined by western blot analysis. Protein bands were scanned and the pixels integrated. sAPPa release is expressed as a percent of maximum where no CP was added.
FIG. 5: PGE2 potentiates the effect of a sub-efficacious concentration of arachidonic acid. Washed platelets were pre-incubated for 2 min with increasing concentrations of PGE2 or vehicle prior addition of 0.5 μM of arachidonic acid. After 1 h, sAPPα release in the supernatant was determined by Western blot analysis as described in FIG. 2. Protein bands were scanned and the pixels integrated. sAPPα release is expressed as a percent of the maximum obtained with 7.5 nM PGE2 and 0.5 μM arachidonic acid.
Secretion of sAPPα has been analyzed in human platelets in response to various agonists.

[1] = target: T1, M1 muscarinic receptor (M1mAChR) (Homo sapiens, UniProt P11229); settings: patients with AD (Nitsch et al., 2000); cited from earlier work
T1 construct: host or cells: patients with AD (endogenous receptor, in vivo)
T1 sequence (P11229 1-460): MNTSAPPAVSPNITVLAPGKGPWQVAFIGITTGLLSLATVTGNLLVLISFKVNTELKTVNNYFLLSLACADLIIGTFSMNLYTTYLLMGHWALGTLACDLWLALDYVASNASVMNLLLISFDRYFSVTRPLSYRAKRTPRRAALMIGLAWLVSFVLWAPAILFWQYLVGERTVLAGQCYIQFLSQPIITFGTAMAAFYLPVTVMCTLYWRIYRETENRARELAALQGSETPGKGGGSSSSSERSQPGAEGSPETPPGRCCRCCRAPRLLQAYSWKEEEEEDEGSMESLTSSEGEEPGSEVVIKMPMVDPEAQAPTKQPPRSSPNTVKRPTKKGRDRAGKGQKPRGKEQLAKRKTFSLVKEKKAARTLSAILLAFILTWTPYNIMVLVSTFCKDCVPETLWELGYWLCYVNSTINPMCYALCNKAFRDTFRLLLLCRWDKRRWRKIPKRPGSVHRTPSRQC

3xTg-AD mice = settings: cited from earlier work
human washed platelets = test: sAPPα and sAPPβ released from activated human washed platelets, LC/ESI/MS/MS; assay type: cell-based; settings: 300 μl platelets at 600,000 cells/μl activated with 500 nM
Method: FIG. 10: Detection of the two sAPP isoforms released from human platelets. 300 μl of human washed platelets at 600,000 cells/μl were activated with 500 nM U46,619. sAPPs released in the medium were immunoprecipitated and digested with trypsin. The peptides were analyzed as described above. The product ions y6 and y4 were monitored for TEEISEVK and MDAEFR, respectively. Chromatograms of the two product ions are shown for each sAPP isoform.
Internal standards for each peptide were obtained by incorporation of a [^13C] labeled amino acid. Human washed platelets (600,000 cells/Ml, 300 μl) were activated with 500 nM of U46,619 and the release of sAPPs was analyzed after centrifuging the cells at 2,000×g for 15 min. After immunoprecipitation of the sAPPs and digestion with trypsin, 150 pg of MDAE[^13C]-FR and TEE[^13C]-ISEVK were added as internal standards and the samples were analyzed by LC/ESI/MS/MS using the LCQ Deca XP ion trap mass spectrometer (Thermo Scientific, Waltham, Mass.).

[2] = 3xTg-AD mice (Caccamo et al., 2006)

Nc1ncnc2c1ncn2[C@@H]1O[C@H](COP(=O)(O)OP(=O)(O)O)[C@@H](O)[C@H]1O [ADP]
sAPPα release by washed platelets (human platelets): had no effect on sAPPα release

CC1OC2(CS1)CN1CCC2CC1 (centres unmarked) [AF102B]
levels of amyloid in cerebrospinal fluid [1]: decrease the levels of amyloid in cerebrospinal fluid

CC[C@@H]1SC2(CCN(C)CC2)NC1=O [AF267B]
APP processing via the β-secretase pathway (3xTg-AD mice; [2]): decreases APP processing via the β-secretase pathway
development of amyloid pathology (3xTg-AD mice; [2]): decreases development of amyloid pathology
expression of ADAM 17/TACE (3xTg-AD mice; Caccamo et al., 2006): increases expression of ADAM 17/TACE

CCCCC[C@H](O)/C=C/[C@H]1[C@H](O)CC(=O)[C@@H]1C/C=C\CCCC(=O)O [PGE2]
potentiation of sAPPα release by sub-efficacious arachidonic acid (human platelets; concentrations higher than 10 nM, with 0.5 μM arachidonic acid): this potentiation effect was reversed
sAPPα release, compound by itself (human platelets; highest concentration used, without arachidonic acid): had no effect on sAPPα release
potentiation of sAPPα release by sub-efficacious arachidonic acid (human platelets; low nanomolar concentrations, pre-incubated 2 min prior to 0.5 μM arachidonic acid, 1 h): potentiates sAPPα release
concentration giving maximum sAPPα release with 0.5 μM arachidonic acid (human platelets; washed platelets, 0.5 μM arachidonic acid, 1 h): 7.5 nM

O=C(O)CCC/C=C\C[C@@H]1[C@H](CNNC(=O)Nc2ccccc2)[C@H]2CC[C@@H]1O2 [SQ29,548]
effect on sAPPα release triggered by arachidonic acid (human platelets; pre-incubated 15 min with increasing concentrations prior to 7.5 μM arachidonic acid): antagonized

CCCCC[C@H](O)/C=C/[C@@H]1[C@@H](C/C=C\CCCC(=O)O)[C@H]2CO[C@@H]1C2 [U46,619]
amount of sAPPα released (human washed platelets): 45 pg
amount of sAPPβ released (human washed platelets): 41 pg
sAPPα release in response to agonist (human platelets; human platelets 600,000 cells/μl, 1 h incubation, U46,619 500 nM, PAR1-AP 100 μM, PAR4-AP 200 μM): gave the same response as 20 μM of arachidonic acid
concentration giving maximal response of sAPPα release (human platelets; human platelets, increasing concentrations): 500 nM

CCCCC/C=C\C/C=C\C/C=C\C/C=C\CCCC(=O)O [arachidonic acid]
concentration giving maximal effect on sAPPα release (human platelets; human platelets): 7.5 µM

CCCCC[C@H](O)/C=C/[C@@H]1[C@H]2C/C(=C/CCCC(=O)O)C[C@H]2C[C@H]1O [carbaprostacyclin]
effect on sAPPα release triggered by U46,619 (human platelets; pre-incubated 30 min with increasing concentrations prior to 500 nM U46,619, 1 h): antagonized in a dose-dependent manner the effect of U46,619

collagen
sAPPα release by washed platelets (human platelets): failed to trigger release of sAPPα
